The supplement of paper PMC7840683
± gives the standard deviation of the averaged measurements.

System: HepaRG
Test: LDH release cytotoxicity, % of total lysis control; higher = more cytotoxic
Conditions: 48 h
How it was run: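 HepaRG cells from a single lot were plated on collagen I-coated 96-well plates and treated in duplicate for 48 h with eight-point half-log series of test chemicals, starting at 100 µM, in serum-free induction medium containing 0.5% DMSO. Total lysis wells were given 0.1% Triton X. LDH released into 50 µL of spent medium was measured as resorufin fluorescence with CytoTox-ONE on a Tecan Safire. Percent cytotoxicity was normalized to on-plate vehicle and total lysis controls and then averaged across duplicates.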

Row | Compound | LDH release cytotoxicity (0.03162 µM) [%] | LDH release cytotoxicity (0.1 µM) [%] | LDH release cytotoxicity (0.3162278 µM) [%] | LDH release cytotoxicity (1 µM) [%] | LDH release cytotoxicity (3.16228 µM) [%] | LDH release cytotoxicity (10 µM) [%] | LDH release cytotoxicity (31.6228 µM) [%] | LDH release cytotoxicity (100 µM) [%] | LDH release cytotoxicity (0.0324133 µM) [%] | LDH release cytotoxicity (0.1025 µM) [%] | LDH release cytotoxicity (0.324134 µM) [%] | LDH release cytotoxicity (1.025 µM) [%] | LDH release cytotoxicity (3.24133 µM) [%] | LDH release cytotoxicity (10.25 µM) [%] | LDH release cytotoxicity (32.4133 µM) [%] | LDH release cytotoxicity (102.5 µM) [%] | LDH release cytotoxicity (0.031623 µM) [%] | LDH release cytotoxicity (0.316228 µM) [%]
1 | CCOC(=O)C(C)OC(=O)c1cc(Oc2ccc(C(F)(F)F)cc2Cl)ccc1[N+](=O)[O-] (stereo not given) [Lactofen] | -1.17 ± 0.45 | -0.64 ± 0.62 | -0.974 ± 0.24 | -1.12 ± 0.48 | -0.601 ± 0.34 | -0.515 ± 0.76 | -0.447 ± 0.37 | 0.298 ± 0.45 |  |  |  |  |  |  |  |  |  | 
2 | Cc1cnc(C2=NC(=O)C(C)(C(C)C)N2)c(C(=O)O)c1 (stereo not given) [Imazapic] | -0.83 ± 0.63 | -2.27 ± 0.52 | -1.6 ± 0.34 | -1.46 ± 0.11 | -1.69 ± 0.21 | -0.919 ± 0.055 | -0.228 ± 0.13 | 0.017 ± 1.6 |  |  |  |  |  |  |  |  |  | 
3 | O=C(O)c1c(Cl)ccc2cc(Cl)cnc12 [Quinclorac] | -0.412 ± 0.14 | -0.369 ± 0.069 | -0.616 ± 0.54 | -0.762 ± 0.34 | -0.281 ± 0.41 | -0.297 ± 0.37 | 0.046 ± 0.18 | 0.495 ± 0.038 |  |  |  |  |  |  |  |  |  | 
4 | O=C(O)c1cccc(C(=O)O)c1 [1,3-Benzenedicarboxylic acid] | -2.12 ± 0.44 | -1.69 ± 0.34 | -1.63 ± 0.21 | -2.28 ± 0.37 | -2.24 ± 0.28 | -1.69 ± 0.35 | 0.0627 ± 0.62 | 4.89 ± 0.58 |  |  |  |  |  |  |  |  |  | 
5 | CCNc1nc(Cl)nc(NCC)n1 [Simazine] | -0.667 ± 0.47 | -1.85 ± 0.54 | -2.13 ± 0.56 | -2.25 ± 0.22 | -2.26 ± 0.15 | -1.94 ± 0.14 | -0.91 ± 0.2 | -0.579 ± 0.64 |  |  |  |  |  |  |  |  |  | 
6 | O=C(O)c1ccccc1 [Benzoic acid] |  |  |  |  |  |  |  |  | -0.341 ± 0.5 | -0.867 ± 1.3 | -1.11 ± 1.2 | -0.944 ± 0.73 | -0.925 ± 0.73 | 0.28 ± 0.2 | 0.174 ± 0.36 | 0.953 ± 0.28 |  | 
7 | CCCN(C1CCN(C(=O)C2CCNCC2)CC1)C1CCc2ccc(OC)cc2C1 (stereo not given) | -0.976 ± 1.3 | -1.04 ± 1.4 | -2.19 ± 0.35 | -1.39 ± 0.37 | -1.79 ± 0.61 | -1.52 ± 0.12 | 0.507 ± 0.4 | 45.7 ± 1.9 |  |  |  |  |  |  |  |  |  | 
8 | CC(C)OC(=O)Nc1cccc(Cl)c1 [Chlorpropham] | -1.82 ± 0.15 | -0.0252 ± 1.6 | -2.28 ± 0.48 | -2.1 ± 0.63 | -1.45 ± 0.039 | -1.72 ± 0.48 | -1.01 ± 0.056 | 1.41 ± 0.48 |  |  |  |  |  |  |  |  |  | 
9 | O=Cc1ccco1 [Furfural] | -1.57 ± 0.78 | -2.07 ± 1.7 | -2.64 ± 0.63 | -3.82 ± 2.1 | -4.51 ± 0.77 | -0.135 ± 1.1 | -0.567 ± 0.12 | 3.05 ± 1.1 |  |  |  |  |  |  |  |  |  | 
10 | CCNc1ccccc1 [N-Ethylaniline] | -1.05 ± 0.66 | -1.82 ± 1.1 | -0.782 ± 1.1 | -2.09 ± 1.1 | -0.812 ± 0.9 | -0.444 ± 0.085 | -0.781 ± 0.36 | 0.942 ± 0.42 |  |  |  |  |  |  |  |  |  | 
11 | C[Si](Cn1cncn1)(c1ccc(F)cc1)c1ccc(F)cc1 [Flusilazole] | -1.41 ± 1 | -1.68 ± 0.17 | -2.26 ± 0.57 | -1.24 ± 0.29 | -2.08 ± 0.094 | -1.2 ± 0.38 | 13.7 ± 1.9 | 42.5 ± 8.6 |  |  |  |  |  |  |  |  |  | 
12 | O=C(O)Cn1c(=O)n(Cc2ccc(Br)cc2F)c(=O)c2ccc(Cl)cc21 [Zenarestat] | -0.858 ± 0.89 | -0.293 ± 1.2 | -0.841 ± 0.43 | -0.408 ± 0.56 | -0.109 ± 1.5 | 0.443 ± 0.12 | -0.513 ± 0.13 | 0.792 ± 0.4 |  |  |  |  |  |  |  |  |  | 
13 | O=C(O)C1C2CCC(O2)C1C(=O)O (stereo not given) [Endothal] | -1.48 ± 0.36 | -1.31 ± 0.46 | -0.8 ± 1.6 | -0.517 ± 0.22 | -1.16 ± 0.45 | -1 ± 0.32 | 1.01 ± 0.73 | 21.8 ± 0.24 |  |  |  |  |  |  |  |  |  | 
14 | O=C(O)Cc1cc(I)c(Oc2ccc(O)c(I)c2)c(I)c1 [Tiratricol] | 1.48 ± 0.13 | 1.09 ± 1.1 | 1.5 ± 1.1 | 0.13 ± 0.074 | 0.965 ± 0.74 | 0.402 ± 0.0063 | -0.312 ± 0.0079 | 21.5 ± 18 |  |  |  |  |  |  |  |  |  | 
15 | CCOP(=S)(OCC)Oc1ccc2c(C)c(Cl)c(=O)oc2c1 [Coumaphos] |  | -3.39 ± 0.25 |  | -2.83 ± 0.67 | -3.28 ± 0.22 | -3.57 ± 0.062 | -2.86 ± 0.88 | 5.7 ± 1.4 |  |  |  |  |  |  |  |  | -0.785 ± 0.75 | -2.36 ± 0.68
16 | COCCOCCOC [Diethylene glycol dimethyl ether] | -0.901 ± 0.75 | -2.67 ± 0.22 | -2.41 ± 0.75 | -2.68 ± 1.4 | -1.55 ± 0.41 | -0.488 ± 0.045 | -0.826 ± 0.12 | 0.75 ± 0.028 |  |  |  |  |  |  |  |  |  | 
17 | CCCCCCCc1ccc(O)cc1 [4-Heptylphenol] | -0.653 ± 0.82 | -1.61 ± 0.21 | -0.99 ± 0.5 | -1.03 ± 0.079 | -1.8 ± 0.76 | -0.598 ± 0.18 | -0.324 ± 0.52 | 0.525 |  |  |  |  |  |  |  |  |  | 
18 | NC(Cc1cc(I)c(Oc2ccc(O)c(I)c2)c(I)c1)C(=O)O (stereo not given) [3,5,3'-Triiodothyronine] |  | -3.18 ± 1.4 |  | -4.06 ± 0.7 | -3.84 ± 0.24 | -3.581 ± 0.016 | -2.69 ± 1.4 | 0.489 ± 0.55 |  |  |  |  |  |  |  |  | -1.22 ± 1.4 | -4.73 ± 0.3
19 | Brc1ccc(Oc2ccccc2)cc1 [p-Bromodiphenyl ether] | -0.849 ± 0.61 | -1.4 ± 0.68 | -1.66 ± 0.61 | -1.42 ± 0.37 | -0.77 ± 0.066 | -0.841 ± 0.23 | 0.599 ± 0.93 | 3.7 ± 1.8 |  |  |  |  |  |  |  |  |  | 
20 | CN(C)c1ccc(C(=O)c2ccc(N(C)C)cc2)cc1 [Michler's ketone] | -2.16 ± 0.051 | -1.79 ± 0.22 | -1.41 ± 0.071 | -2.73 ± 1 | 2.66 ± 0.82 | 9.37 ± 0.13 | 7.06 ± 0.09 | 12.9 ± 2 |  |  |  |  |  |  |  |  |  | 
